Reference: ChEMBL document CHEMBL1153355, “Synthesis and cytotoxic activities of novel phenacylimidazolium bromides” (Bioorg Med Chem Lett, 2009)

Legend:
Assay type in all cases: functional, cell-based
HEp-2 = experiment: Cytotoxicity against human Hep2 cells by MTT assay
K562 = experiment: Cytotoxicity against human K562 cells by MTT assay
HL-60 = experiment: Cytotoxicity against human HL60 cells by MTT assay
[1] = Cytotoxicity against human GLC15 cells by MTT assay
MKN-28 = experiment: Cytotoxicity against human MKN28 cells by MTT assay
SMMC-7721 = experiment: Cytotoxicity against human SMMC7721 cells by MTT assay
A-431 = experiment: Cytotoxicity against human A431 cells by MTT assay
SK-OV-3 = experiment: Cytotoxicity against human SKOV3 cells by MTT assay

Cc1cc(C)c(-n2cc[n+](CC(=O)C(C)(C)C)c2)c(C)c1
IC50 (HEp-2): 132 µM
IC50 (K562): > 200 µM
IC50 (HL-60): 113 µM
IC50 [1]: > 200 µM
IC50 (MKN-28): > 200 µM
IC50 (SMMC-7721): 154 µM
IC50 (A-431): > 200 µM
IC50 (SK-OV-3): 192 µM

COc1ccc(C(=O)C[n+]2ccn(C(C)(C)C)c2)cc1
IC50 (HEp-2): 117 µM
IC50 (K562): > 200 µM
IC50 (HL-60): > 200 µM
IC50 [1]: 179 µM
IC50 (MKN-28): > 200 µM
IC50 (SMMC-7721): > 200 µM
IC50 (A-431): 66.2 µM
IC50 (SK-OV-3): > 200 µM

CC(C)c1cccc(C(C)C)c1-n1cc[n+](CC(=O)c2ccc(Br)cc2)c1
IC50 (HEp-2): 9.2 µM
IC50 (K562): 2.8 µM
IC50 (HL-60): 3.8 µM
IC50 [1]: 18.4 µM
IC50 (MKN-28): 35.3 µM
IC50 (SMMC-7721): 10.9 µM
IC50 (A-431): 4.6 µM
IC50 (SK-OV-3): 11.3 µM

Cc1cc(C)c(-n2cc[n+](CC(=O)c3ccc(Br)cc3)c2)c(C)c1
IC50 (HEp-2): 22.1 µM
IC50 (K562): 21.4 µM
IC50 (HL-60): 13.4 µM
IC50 [1]: 36.9 µM
IC50 (MKN-28): 76.6 µM
IC50 (SMMC-7721): 23.8 µM
IC50 (A-431): 5.4 µM
IC50 (SK-OV-3): 33.1 µM

COc1ccc(C(=O)C[n+]2ccn(CCc3ccc(OC)c(OC)c3)c2)cc1
IC50 (HEp-2): 62.3 µM
IC50 (K562): > 200 µM
IC50 (HL-60): 50.4 µM
IC50 [1]: 33.4 µM
IC50 (MKN-28): > 200 µM
IC50 (SMMC-7721): 62.3 µM
IC50 (A-431): 188 µM
IC50 (SK-OV-3): 37.4 µM

CC(C)c1cccc(C(C)C)c1-n1cc[n+](CC(=O)c2ccc3c(c2)COC3)c1
IC50 (HEp-2): 11.6 µM
IC50 (K562): 12.1 µM
IC50 (HL-60): 4.5 µM
IC50 [1]: 36.9 µM
IC50 (MKN-28): 59.6 µM
IC50 (SMMC-7721): 44.3 µM
IC50 (A-431): 5.1 µM
IC50 (SK-OV-3): 25.5 µM

O=C(C[n+]1ccn(C23CC4CC(CC(C4)C2)C3)c1)c1ccc2ccccc2c1
IC50 (HEp-2): 0.8 µM
IC50 (K562): 3.4 µM
IC50 (HL-60): 4.2 µM
IC50 [1]: 0.8 µM
IC50 (MKN-28): 12.8 µM
IC50 (SMMC-7721): 7.7 µM
IC50 (A-431): 6.4 µM
IC50 (SK-OV-3): 4 µM

CC(=O)Cc1ccc(-n2cc[n+](CC(=O)c3ccccc3)c2)cc1
IC50 (HEp-2): > 200 µM
IC50 (K562): > 200 µM
IC50 (HL-60): 25.8 µM
IC50 [1]: 53.5 µM
IC50 (MKN-28): > 200 µM
IC50 (SMMC-7721): 53.4 µM
IC50 (A-431): 7 µM
IC50 (SK-OV-3): > 200 µM

COc1ccc(C(=O)C[n+]2ccn(-c3ccc(CC(C)=O)cc3)c2)cc1
IC50 (HEp-2): 84.8 µM
IC50 (K562): 16.7 µM
IC50 (HL-60): 44.4 µM
IC50 [1]: 26.5 µM
IC50 (MKN-28): 140 µM
IC50 (SMMC-7721): 91.6 µM
IC50 (A-431): 14.5 µM
IC50 (SK-OV-3): 61.1 µM

O=C(C[n+]1ccn(C23CC4CC(CC(C4)C2)C3)c1)c1ccccc1
IC50 (HEp-2): 93.4 µM
IC50 (K562): > 200 µM
IC50 (HL-60): 39 µM
IC50 [1]: 108 µM
IC50 (MKN-28): 198 µM
IC50 (SMMC-7721): 108 µM
IC50 (A-431): 13.3 µM
IC50 (SK-OV-3): 59.3 µM

Cc1cc(C)c(-n2cc[n+](CC(=O)c3ccc4c(c3)COC4)c2)c(C)c1
IC50 (HEp-2): 12.3 µM
IC50 (K562): 70.1 µM
IC50 (HL-60): 6.1 µM
IC50 [1]: 23.5 µM
IC50 (MKN-28): 85.3 µM
IC50 (SMMC-7721): 33.5 µM
IC50 (A-431): 18.2 µM
IC50 (SK-OV-3): 31.5 µM

COc1ccc(C(=O)C[n+]2ccn(C34CC5CC(CC(C5)C3)C4)c2)cc1
IC50 (HEp-2): 7.1 µM
IC50 (K562): 1.5 µM
IC50 (HL-60): 14.7 µM
IC50 [1]: 59.3 µM
IC50 (MKN-28): 158 µM
IC50 (SMMC-7721): 27.9 µM
IC50 (A-431): 6.3 µM
IC50 (SK-OV-3): 5.6 µM

CC(C)(C)n1cc[n+](CC(=O)c2ccccc2)c1
IC50 (HEp-2): > 200 µM
IC50 (K562): > 200 µM
IC50 (HL-60): > 200 µM
IC50 [1]: > 200 µM
IC50 (MKN-28): > 200 µM
IC50 (SMMC-7721): > 200 µM
IC50 (A-431): > 200 µM
IC50 (SK-OV-3): > 200 µM

COc1ccc(C(=O)C[n+]2ccn(-c3c(C(C)C)cccc3C(C)C)c2)cc1
IC50 (HEp-2): 2.8 µM
IC50 (K562): 2.6 µM
IC50 (HL-60): 1.1 µM
IC50 [1]: 5.1 µM
IC50 (MKN-28): 10 µM
IC50 (SMMC-7721): 9.9 µM
IC50 (A-431): 4.2 µM
IC50 (SK-OV-3): 5 µM

Cc1cc(C)c(-n2cc[n+](CC(=O)c3ccccc3)c2)c(C)c1
IC50 (HEp-2): 97.6 µM
IC50 (K562): > 200 µM
IC50 (HL-60): 31.3 µM
IC50 [1]: > 200 µM
IC50 (MKN-28): > 200 µM
IC50 (SMMC-7721): 16.8 µM
IC50 (A-431): 15.6 µM
IC50 (SK-OV-3): 29.9 µM

COc1ccc(C(=O)C[n+]2ccn(-c3ccc([N+](=O)[O-])cc3)c2)cc1
IC50 (HEp-2): 41.6 µM
IC50 (K562): 113 µM
IC50 (HL-60): 8.6 µM
IC50 [1]: 97.6 µM
IC50 (MKN-28): 113 µM
IC50 (SMMC-7721): > 200 µM
IC50 (A-431): 75.5 µM
IC50 (SK-OV-3): 26.6 µM

COc1ccc(CCn2cc[n+](CC(=O)c3ccc4ccccc4c3)c2)cc1OC
IC50 (HEp-2): 77.2 µM
IC50 (K562): 169 µM
IC50 (HL-60): 54.2 µM
IC50 [1]: 50.2 µM
IC50 (MKN-28): 85.4 µM
IC50 (SMMC-7721): 34.4 µM
IC50 (A-431): 75 µM
IC50 (SK-OV-3): 11 µM

Cc1cc(C)c(-n2cc[n+](CC(=O)c3ccc4ccccc4c3)c2)c(C)c1
IC50 (HEp-2): 0.7 µM
IC50 (K562): 2.7 µM
IC50 (HL-60): 2.8 µM
IC50 [1]: 0.4 µM
IC50 (MKN-28): 8.7 µM
IC50 (SMMC-7721): 6.8 µM
IC50 (A-431): 4.4 µM
IC50 (SK-OV-3): 2.1 µM

COc1ccc(C(=O)C[n+]2ccn(-c3c(C)cc(C)cc3C)c2)cc1
IC50 (HEp-2): 1.5 µM
IC50 (K562): 2.4 µM
IC50 (HL-60): 3.1 µM
IC50 [1]: 2.2 µM
IC50 (MKN-28): 5 µM
IC50 (SMMC-7721): 4.7 µM
IC50 (A-431): 1.7 µM
IC50 (SK-OV-3): 1.6 µM

CC(C)c1cccc(C(C)C)c1-n1cc[n+](CC(=O)c2ccc3ccccc3c2)c1
IC50 (HEp-2): 3.5 µM
IC50 (K562): 0.4 µM
IC50 (HL-60): 1.5 µM
IC50 [1]: 6.2 µM
IC50 (MKN-28): 9.6 µM
IC50 (SMMC-7721): 10.5 µM
IC50 (A-431): 14.7 µM
IC50 (SK-OV-3): 1.9 µM

Cc1cc(C)c(-n2c[n+](CC(=O)c3ccc4ccccc4c3)c(C)c2C)c(C)c1
IC50 (HEp-2): 1.9 µM
IC50 (K562): 0.2 µM
IC50 (HL-60): 4.1 µM
IC50 [1]: 4.3 µM
IC50 (MKN-28): 1.7 µM
IC50 (SMMC-7721): 9.8 µM
IC50 (A-431): 3.9 µM
IC50 (SK-OV-3): 3.7 µM
